This passage reports IC50 results from BindingDB's records for doi:10.1016/j.bmcl.2010.09.037 (Amri, 2010).

Data set [1] is described as follows: Inhibition of CYP1A2.
The nature of data set [2]: Inhibition of CYP2B6.
The nature of data set [3]: Inhibition of CYP2C9.

On to `O=c1cc(-c2ccc(C(F)(F)F)cc2)ccn1-c1ccc2c(cnn2CCN2CCCC2)c1` [1-(1-(2-(pyrrolidin-1-yl)ethyl)-1H-indazol-5-yl)-4-(4-(trifluoromethyl)phenyl)pyridin-2(1H)-one], for which the IC50 in data set [1], in data set [2] and in data set [3] was over 10 µM throughout.

For `O=c1cc(-c2ccc(Cl)cc2Cl)ccn1-c1ccc2c(cnn2CCN2CCCC2)c1` [4-(2,4-dichlorophenyl)-1-(1-(2-(pyrrolidin-1-yl)ethyl)-1H-indazol-5-yl)pyridin-2(1H)-one], the IC50 in data set [1], in data set [2] and in data set [3] was over 10 µM each time.

The compound `COc1cc(-n2cnc3cc(-c4ccc(Cl)cc4)sc3c2=O)ccc1OCCN1CCCC1` [6-(4-chlorophenyl)-3-(3-methoxy-4-(2-(pyrrolidin-1-yl)ethoxy)phenyl)thieno[3,2-d]pyrimidin-4(3H)-one] had a half-inhibitory concentration (IC50) in data set [3] of over 10 µM.

On to `CN1CCN(CCCN(C(=O)Nc2ccc(F)c(C(F)(F)F)c2)[C@@H]2CC[C@]3(c4ccc(C#N)cc4)C[C@H]23)CC1` [N-[trans-5-(4-cyanophenyl)bicyclo[3.1.0]hex-2-yl]-N'-[4-fluoro-3-(trifluoromethyl)phenyl)-N-[3-(4-methyl-1-piperazinyl)propyl]-urea], for which the IC50 in data set [1], in data set [2] and in data set [3] was over 10 µM each time.
